Measurements: patent publication US5521284A, “Human cancer inhibitory pentapeptide amides and esters” (priority 1994, dated 1996)

What was measured:
[1] = system: P388 Lymphocytic Leukemia; experiment: Murine in vivo system, P388 Lymphocytic Leukemia
Source text: (§1) T/C = Test Control, both bearing tumor, expressed in time of survival.
(§2) T/C - 100 = % life extension.

[2] = system: L1210 Lymphocytic Leukemia; experiment: Murine in vivo system, L1210 Lymphocytic Leukemia; settings: 1.63 μg/kg; time of survival
Source text: (§3) Experimental Anticancer Activity of Dolastatin 10 in
(§4) Murine in vivo Systems, T/C (μg/kg)
as §2

[3] = system: B16 Melanoma; experiment: Murine in vivo system, B16 Melanoma; settings: 11.11 μg/kg
Source text: as §3, §4, §2

[4] = system: LOX Human Melanoma Xenograph; experiment: LOX Human Melanoma Xenograph (Nude Mouse)
Source text: as §1, §2

[5] = system: Human Mammary Xenograph; experiment: Human Mammary Xenograph Nude Mouse; settings: 26 μg/kg
Source text: as §1, §2

[6] = system: OVCAR-3 Human Ovary Xenograph; experiment: OVCAR-3 Human Ovary Xenograph Nude Mouse; assay type: in vivo; settings: 40 μg/kg; time of survival
Source text: as §3, §4, §2

[7] = system: MX-1 Human Mammary Xenograft; experiment: MX-1 Human Mammary Xenograft (Tumor Regression); assay type: in vivo, Murine
Source text: as §3, §4, §2

[8] = system: OVCAR-3; experiment: NCI in vitro mini panel, Ovarian OVCAR-3; assay type: cell-based, Human; settings: 48 hrs
Protocol: (§5) ED50 (P388) and GI50 (HTCL) identify the drug dose which reduces the percent tumor/cell growth to 50%. There is no mathematical difference between ED50 and GI50, both of which are calculated using the same formula. The only difference is historical usage.
(§6) TGI, means "Total Growth Inhibition", and identifies the drug dose needed to yield zero percent growth, i.e. there are just as many cells at the end of the experiment as were present at the beginning. Whether just as many cells were killed as were produced (steady state), or no growth occurred (total inhibition) cannot be distinguished.
(§7) LC50, means "Lethal Concentration 50%", and identifies the drug concentration which reduces to one-half of the cells originally present at the beginning of the experiment.
(§8) Each drug is tested at five (5) doses: 100-10-1-0.1-0.01--μg/mL. Percent Growths are calculated for each dose. The two (or three) doses with growth values above, below, (or near to) 50% growth are used to calculate the ED50 /GI50 values using a linear regression computation. If no dose yields a growth value under 50%, the results are expressed as: ED50 >(highest dose). If no dose yields growth higher than 50% growth, then ED50 <(lowest dose). Similar calculations are performed for the TGI at 0% growth, and at -50% growth for the LC50.
(§9) At the start of each experiment, cells from the in vitro cell cultures are inoculated into the appropriate tubes or microtiter plates. One set of control tubes/plates is immediately counted to determine the number of cells at the start of the experiment. This is the "baseline count", or "Tzero reading". At the end of the experiment (48 hrs later), a second set of control tubes/plates is analyzed to determine the "Control Growth" value. The growth (or death) of cells relative to the initial quantity of cells is used to define the "Percent of Growth."
(§10) For each of six cell lines, GI50, TGI, and LC50 amounts were also calculated for each of the compounds. Each compound was also tested against the PS-388 cell line and for this test an ED50 was calculated.
(§11) The protocols followed, for the NCI minipanel are, except for the number of cell lines, those established by M. R. Boyd Ph.D., and well known to those of ordinary skill in the art. The procedure followed for the test against PS-388 Leukemia is the same that was followed in the superseded NCI P-388 screening test, which is also well known to those having ordinary skill in the art.

[9] = system: SF-295; experiment: NCI in vitro mini panel, CNS SF-295; assay type: cell-based, Human; settings: 48 hrs
Protocol: as §5, §6, §7, §8, §9, §10, §11

[10] = system: A498; experiment: NCI in vitro mini panel, Renal A498; assay type: cell-based, Human; settings: 48 hrs
Protocol: as §5, §6, §7, §8, §9, §10, §11

[11] = system: NCI-H460; experiment: NCI in vitro mini panel, Lung-NSC NCI-H460; assay type: cell-based, Human; settings: 48 hrs
Protocol: as §5, §6, §7, §8, §9, §10, §11

[12] = system: KM20L2; experiment: NCI in vitro mini panel, Colon KM20L2; assay type: cell-based, Human; settings: 48 hrs
Protocol: as §5, §6, §7, §8, §9, §10, §11

[13] = system: SK-MEL-5; experiment: NCI in vitro mini panel, Melanoma SK-MEL-5; assay type: cell-based, Human; settings: 48 hrs
Protocol: as §5, §6, §7, §8, §9, §10, §11

[14] = system: PS-388; experiment: PS-388 Mouse Leukemia cell line test; assay type: cell-based; settings: Mouse Leukemia PS-388
Protocol: as §5, §8, §9, §10, §11

Substance | GI-50 [8] [µg/mL] | LC-50 [8] [µg/mL] | TGI [8] [ng/mL] | GI-50 [9] [µg/mL] | LC-50 [9] [µg/mL] | TGI [9] [ng/mL] | GI-50 [10] [µg/mL] | LC-50 [10] [µg/mL] | TGI [10] [ng/mL] | GI-50 [11] [µg/mL] | LC-50 [11] [µg/mL] | TGI [11] [ng/mL] | GI-50 [12] [µg/mL] | LC-50 [12] [µg/mL] | TGI [12] [ng/mL] | GI-50 [13] [µg/mL] | LC-50 [13] [µg/mL] | TGI [13] [ng/mL] | ED-50 [14] [µg/mL] | other results
Dolastatin 10 | – | – | – | – | – | – | – | – | – | – | – | – | – | – | – | – | – | – | – | cures ([1]; 3.25 μg/kg): 17%; cures ([1]; 6.5 μg/kg): 17%; T/C ([1]; 13.0 μg/kg): toxic; T/C [2]: 120; cures [3]: 40%; cures ([4]; 3.25 μg/kg): 17%; T/C ([4]; 3.25 μg/kg, time of survival): 170; cures ([4]; 6.5 μg/kg): 33%; cures ([4]; 13 μg/kg): 50%; cures ([4]; 26 μg/kg): 67%; T/C ([4]; 52 μg/kg): toxic; T/C ([4]; Lox in separate experiments, 43 μg/kg, time of survival): 340; T/C [5]: Toxic; T/C [6]: 300; T/C (Tumor Regression) ([7]; 6.25 μg/kg): 69; T/C (Tumor Regression) ([7]; 13 μg/kg): 61; T/C (Tumor Regression) ([7]; 26 μg/kg): 50; T/C (Tumor Regression) ([7]; 52 μg/kg): 14
Dov-Ie-Dil-Dap-Doe [Compound 12] | 0.0000000091 | > 1 | 6e-05 | 0.000000025 | > 1 | 0.00025 | 0.000000058 | > 1 | 17 | 0.0000000058 | > 1 | 6.5e-05 | 0.0000000072 | > 1 | 0.0001 | 0.0000000048 | > 1 | 0.00015 | 0.0000248 | –
Dov-Val-Dil-Dap Octyl ester [Compound 16b] | 0.0031 | > 1 | 40 | 0.0054 | > 1 | > 1000 | 0.025 | > 1 | 550 | 0.0042 | > 1 | 58 | 0.0017 | > 1 | 130 | 0.0027 | > 1 | > 1000 | 0.029 | –
Dov-Val-Dil-Dap Pentyl ester [Compound 16a] | 0.00052 | > 1 | 1.1 | – | > 1 | 21 | < 0.0001 | > 1 | 180 | 0.00034 | > 1 | 1.1 | – | > 1 | 13 | 0.00066 | > 1 | 31 | 0.021 | –
Dov-Val-Dil-Dap hexylamide [Compound 16c] | 0.0005 | > 0.01 | 3.9 | 0.0011 | > 0.01 | > 10 | 0.0019 | > 0.01 | > 10 | 0.00071 | > 0.01 | 5.1 | 0.00092 | > 0.01 | 6.6 | 0.00058 | > 0.01 | > 10 | 0.00227 | –
Dov-ile-Dil-Dap-Met-OMe [Compound 14] | 0.000067 | > 1 | 0.67 | 0.00025 | > 1 | > 1000 | 0.00027 | > 1 | 35 | 0.00012 | > 1 | 0.13 | 0.000034 | > 1 | 1.3 | 0.000044 | > 1 | 22 | 0.00032 | –
